# Where two headings read alike, the source gives them in different places.
# Experiments:
# [1] = for RFU change (Correlation analysis) / RFU change (Signal deviation with increasing [Carbohydrate]) / λmax change: 3 μM probe; for RFU change (Correlation analysis): probe-specific excitation λ, emission 545 nm; for RFU change (Signal deviation with increasing [Carbohydrate]) / λmax change: spectral analysis, Excitation 300-500, Emission 545; for carbohydrate can be detected and/or differentiated by the LCO: conclusion from change in signal magnitude and/or shift in λmax; for Gradient Parameters (gradient of regression line) / Linear relationship / Quality of Gradient: linear regression
# How it was run: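 Each LCO probe at 3 μM was added to two-fold serial dilutions of carbohydrate in dH2O (10–0.039 mg/ml for β-1,3-glucan, cellulose, chitin; 5–0.019 mg/ml for the others), run in triplicate. Excitation spectra were scanned 300–500 nm with emission at 545 nm. Detection was a reproducible λmax and/or RFU shift versus negative control, with linear regression of RFU against concentration.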
# [2] = How it was run: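 LCO probes (3 μM) were added to serial two-fold dilutions of carbohydrate suspensions in dH2O, with excitation scanned 300–500 nm and emission at 545 nm. Detection was a reproducible λmax and/or RFU change versus no-carbohydrate control. RFU was regressed linearly against concentration at the λmax or the lowest-background excitation.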
# [3] = remark: listed apart in the source
# How it was run: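 3 μM of each LCO probe was added to serial two-fold carbohydrate dilutions in water (10–0.039 or 5–0.019 mg/ml). Excitation spectra were scanned 300–500 nm with emission at 545 nm, in triplicate. Detection was defined as a reproducible shift in λmax and/or RFU versus negative control, with linear regression of RFU against concentration.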
# [4] = remark: listed apart in the source
# How it was run: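 LCO probes at 3 μM mixed with serial two-fold carbohydrate dilutions in water (10–0.039 or 5–0.019 mg/ml), run in triplicate. Excitation scanned 300–500 nm with emission at 545 nm; detection based on reproducible λmax or RFU shift against the no-carbohydrate control, with linear regression of RFU on concentration.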
# [5] = for RFU change (Correlation analysis): probe-specific excitation λ, emission 545 nm; for Gradient Parameters (gradient of regression line) / Linear relationship / Quality of Gradient: linear regression
# How it was run: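 LCO probes at 3 μM mixed with serial twofold carbohydrate dilutions in dH2O (10–0.039 or 5–0.019 mg/ml, depending on carbohydrate). Excitation scanned 300–500 nm, emission read at 545 nm; detection defined as reproducible shift in λmax and/or RFU relative to negative control, with linear regression of RFU against concentration.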
# [6] = for RFU change (Correlation analysis): probe-specific excitation λ, emission 545 nm
# How it was run: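 LCO probes at 3 μM mixed with serial two-fold dilutions of carbohydrate in dH2O (10–0.039 or 5–0.019 mg/ml, depending on carbohydrate), in triplicate. Excitation scanned 300–500 nm or fixed per probe (λmax or lowest background), emission at 545 nm. Detection taken as reproducible λmax/RFU shift vs no-carbohydrate control; RFU regressed linearly on concentration.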
# [7] = β-1,3-glucan concentration vs RFU
# [8] = sodium alginate concentration vs RFU, linear regression
# [9] = Chondroitin Sulfate A 5-0.019 mg/ml, 3 μM probe, spectral analysis, Excitation 300-500, Emission 545
# [10] = Chondroitin Sulfate A concentration vs RFU, linear regression
# [11] = glucose concentration vs RFU, linear regression
# [12] = Glycogen 5-0.019 mg/ml, 3 μM probe, spectral analysis, Excitation 300-500, Emission 545
# [13] = Cellulobiose 5-0.019 mg/ml, 3 μM probe, spectral analysis, Excitation 300-500, Emission 545
# [14] = amylose concentration vs RFU, linear regression
# [15] = cellulobiose concentration vs RFU, linear regression
compound,measurement,setting,value
"Cl.Cl.O=C(Cc1cc(-c2cccs2)sc1-c1ccc(-c2sc(-c3cccs3)cc2CC(=O)NCCc2c[nH]cn2)s1)NCCc1c[nH]cn1 [pHTA-His, penta Hydrogen Thiophene Acetic acid Histidine]",RFU change (Correlation analysis),[1]; Cellulose 10-[…],Increase
same,RFU change (Signal deviation with increasing [Carbohydrate]),[1]; Cellulose 10-[…],Increase
same,λmax change,[1]; Cellulose 10-[…],Redshift
same,carbohydrate can be detected and/or differentiated by the LCO,[1]; Cellulose,can be detected and/or differentiated
same,RFU change (Correlation analysis),[1]; Chitin 10-[…],Increases
same,RFU change (Signal deviation with increasing [Carbohydrate]),[1]; Chitin 10-[…],Increases
same,λmax change,[1]; Chitin 10-[…],Redshift
same,carbohydrate can be detected and/or differentiated by the LCO,[1]; Chitin,can be detected and/or differentiated
same,Gradient Parameters (gradient of regression line),[1]; cellulose concentration vs RFU,725.9 ± 124.6
same,Linear relationship,[1]; cellulose concentration vs RFU,Significant
same,Quality of Gradient,[1]; cellulose concentration vs RFU,Positive
same,Gradient Parameters (gradient of regression line),[1]; chitin concentration vs RFU,117.2 ± 25.7
same,Linear relationship,[1]; chitin concentration vs RFU,Significant
same,Quality of Gradient,[1]; chitin concentration vs RFU,Positive
same,Sensitivity,[1]; to cellulose,Yes
same,Sensitivity,[1]; to chitin,Yes
same,Sensitivity,"[1]; to β-1,3-glucan",No
same,RFU change (Correlation analysis),"[1]; β-1,3-glucan 10-[…]",Unclear
same,RFU change (Signal deviation with increasing [Carbohydrate]),"[1]; β-1,3-glucan 10-[…]",Unclear
same,Gradient Parameters (gradient of regression line),[1]; [7],−7.071 ± 34
same,Quality of Gradient,[1]; [7],Horizontal
same,RFU change (Correlation analysis),"[2]; Sodium alginate 5-0.019 mg/ml, 3 μM probe, probe-specific excitation λ, emission 545 nm",Increases
same,RFU change (Signal deviation with increasing [Carbohydrate]),"[2]; Sodium alginate 5-0.019 mg/ml, 3 μM probe, spectral analysis, Excitation 300-500, Emission 545",Increases
same,carbohydrate can be detected and/or differentiated by the LCO,"[2]; Sodium alginate, conclusion from change in signal magnitude and/or shift in λmax",can be detected and/or differentiated
same,Gradient Parameters (gradient of regression line),[2]; [8],199.9 ± 36.3
same,Linear relationship,[2]; [8],Significant
same,Quality of Gradient,[2]; [8],Positive
same,Sensitivity,[2]; to sodium alginate,Yes
same,RFU change (Correlation analysis),"[3]; Chondroitin Sulfate A 5-0.019 mg/ml, 3 μM probe, probe-specific excitation λ, emission 545 nm",Increases
same,RFU change (Signal deviation with increasing [Carbohydrate]),[3]; [9],Increases
same,λmax change,[3]; [9],Blueshift
same,Gradient Parameters (gradient of regression line),[3]; [10],163.8 ± 20.77
same,Linear relationship,[3]; [10],Significant
same,Quality of Gradient,[3]; [10],Positive
same,carbohydrate can be detected and/or differentiated by the LCO,"[3]; Chondroitin sulfate A, conclusion from change in signal magnitude and/or shift in λmax",can be detected and/or differentiated
same,Sensitivity,[3]; to Chondroitin Sulfate A,Yes
same,RFU change (Correlation analysis),"[4]; Glucose 5-0.019 mg/ml, 3 μM probe, probe-specific excitation λ, emission 545 nm",Unclear
same,RFU change (Signal deviation with increasing [Carbohydrate]),"[4]; Glucose 5-0.019 mg/ml, 3 μM probe, spectral analysis, Excitation 300-500, Emission 545",Increases
same,Gradient Parameters (gradient of regression line),[4]; [11],33.2 ± 25.2
same,Quality of Gradient,[4]; [11],Horizontal
same,Sensitivity,[4]; to glucose,No
same,RFU change (Correlation analysis),"[5]; Glycogen 5-0.019 mg/ml, 3 μM probe",Increases
same,RFU change (Signal deviation with increasing [Carbohydrate]),[5]; [12],Increases
same,λmax change,[5]; [12],Redshift
same,carbohydrate can be detected and/or differentiated by the LCO,"[5]; Glycogen, conclusion from change in signal magnitude and/or shift in λmax",can be detected and/or differentiated
same,RFU change (Correlation analysis),"[5]; Heparin 5-0.019 mg/ml, 3 μM probe",Unclear
same,RFU change (Signal deviation with increasing [Carbohydrate]),"[5]; Heparin 5-0.019 mg/ml, 3 μM probe, spectral analysis, Excitation 300-500, Emission 545",Decreases
same,Gradient Parameters (gradient of regression line),[5]; glycogen concentration vs RFU,130.6 ± 55.6
same,Linear relationship,[5]; glycogen concentration vs RFU,Significant
same,Quality of Gradient,[5]; glycogen concentration vs RFU,Positive
same,Gradient Parameters (gradient of regression line),[5]; heparin concentration vs RFU,26.3 ± 18.5
same,Linear relationship,[5]; heparin concentration vs RFU,Not Significant
same,Quality of Gradient,[5]; heparin concentration vs RFU,Horizontal
same,Sensitivity,[5]; to glycogen,Yes
same,Sensitivity,[5]; to heparin,No
same,RFU change (Correlation analysis),"[6]; Amylose 5-0.019 mg/ml, 3 μM probe",Decreases
same,RFU change (Signal deviation with increasing [Carbohydrate]),"[6]; Amylose 5-0.019 mg/ml, 3 μM probe, spectral analysis, Excitation 300-500, Emission 545",Decreases
same,carbohydrate can be detected and/or differentiated by the LCO,"[6]; Amylose, conclusion from change in signal magnitude and/or shift in λmax",can be detected and/or differentiated
same,RFU change (Correlation analysis),"[6]; Cellulobiose 5-0.019 mg/ml, 3 μM probe",Unclear
same,RFU change (Signal deviation with increasing [Carbohydrate]),[6]; [13],Unclear
same,λmax change,[6]; [13],No change
same,Gradient Parameters (gradient of regression line),[6]; [14],−341.5 ± 47.3
same,Linear relationship,[6]; [14],Significant
same,Quality of Gradient,[6]; [14],Negative
same,Gradient Parameters (gradient of regression line),[6]; [15],−5.26 ± 4.87
same,Quality of Gradient,[6]; [15],Horizontal
same,Sensitivity,[6]; to amylose,Yes
same,Sensitivity,[6]; to cellulobiose,No

# — US9958439B2, “Carbohydrate detection” (RICHTER LIFE SCIENCE DEVELOPMENT AB, priority 2012, dated 2018)
